Key:
Wnt/β-catenin pathway = experiment: TOP-Flash TCF4-dependent dual luciferase reporter assay in Huh7 cells; format: cell-based, human; details: Huh7, 10 mM LiCl
Method: Cells were plated at 1×10^5 cells/well in 24-well plates and transiently transfected with 490 ng of luciferase-reporter plasmid and 10 ng of phRL-TK per well using the Turbofect transfection reagent (Thermo Scientific, USA). After 5-6 h post-transfection, cells were treated with drug(s) or DMSO vehicle control for 36 h in the presence or absence of LiCl (10 mM). Luciferase assays were performed using the Dual Luciferase Assay System (Promega, USA) according to manufacturer's instructions.

Huh7 cells [1] = experiment: Seahorse mitochondrial stress test (OCR) in Huh7 cells; format: cell-based, human; details: Huh7, 24 h
Method: Oxygen Consumption Rates (OCR) were measured on an XF-96 Extracellular Flux Analyzer (Seahorse Bioscience) using the protocol and conditions optimized for HCC cells as previously described by our group. Briefly, the experiments were performed by seeding 10,000 and 20,000 Huh7 cells per well in XFe 96 well-plates 36 h before the experiment. Cells were treated for 24 h with FH535, FH535-N or vehicle control. In OCR experiments the media was supplemented with 25 mM Glucose and 1 mM Pyruvate just before the assay. After minimal incubation time (˜20-30 min in non-CO2 37° C. incubator) mitochondrial stress test was initiated. […] All reagents used in the Seahorse experiments were purchased from Sigma-Aldrich. Analyses of data were performed with Wave 2.2 software (Seahorse Bioscience), Excel (Microsoft Office 2013) and Prism 7.0 (GraphPad Software).

[2] = test system: purified mitochondria from mouse liver; experiment: Uncoupling assay (OCR) using purified mitochondria from mouse livers; format: biochemical; details: 5 μM/1 μM
Method: All the steps were carried out at 4° C. or on ice. After mice were euthanized with CO2 followed by rapid decapitation, whole liver was quickly dissected out on a cold block and homogenized using a Teflon-glass dounce homogenizer containing isolation buffer (215 mM mannitol, 75 mM sucrose, 0.1% BSA, 20 mM HEPES, 1 mM EGTA, adjusted to pH 7.2 with KOH). The homogenate was transferred to a 2 mL-microcentrifuge tube and spun at 1,300×g for 3 min. The supernatant was transferred to a fresh 2 mL-microcentrifuge tube and spun at 13,000×g for 10 min. The supernatant was discarded, and the crude mitochondrial pellet was resuspended in a 1.5 mL-microcentrifuge tubes and pelleted again at 10,000×g for 10 min. The supernatant was discarded, and the mitochondrial pellets were resuspended in isolation buffer to obtain an approximate concentration ≥10 mg/mL of mitochondria. The absolute protein concentration was determined using a bicinchoninic acid (BCA) protein assay kit (Pierce, Cat #23,227) by recording absorbance at 560 nm on a Biotek Synergy HT plate reader (Winooski, Vt., USA).
Mitochondrial Bioenergetics Measurements. Mitochondrial bioenergetic measurements were carried out using a Seahorse XFe96 Extracellular Flux Analyzer (Agilent Technologies, Santa Clara, Calif., USA) to measure oxygen consumption rate (OCR) during various states of respiration. The OCR were measured in the presence of different substrates, inhibitors and uncouplers of the electron transport chain using previous methods with slight modifications. The stocks used for the assays were 500 mM pyruvate, 250 mM malate, and 30 mM adenosine diphosphate (ADP), and 1 M succinate (pH for all was adjusted to 7.2). […] Stock solutions of FH535, Y3, FH535-M, and Y3-M were prepared at 5 mM in 100% DMSO. As per the instructions from XFe96 Extracellular Flux kit, the sensor cartridge was hydrated with water and kept at 37° C. overnight before the experiment. One hour before the assay was conducted, water was removed from assay plates and XF calibrant was added before re-incubation. The injection ports A to D of the sensor cartridge were loaded with 25 μL of different combinations of the above substrates/inhibitors/uncouplers as follows. Before loading, the stocks were diluted appropriately in the respiration buffer (RB) (125 mM KCl, 0.1% BSA, 20 mM HEPES, 2 mM MgCl2, and 2.5 mM KH2PO4; pH 7.2) to get the final concentrations in the respiration chamber of 5 μM pyruvate, 2.5 μM malate, 10 μM of succinate and 1 μM ADP (via Port A), 1 μM oligomycin A (via Port B), 4 μM FCCP or 5 μM/1 μM FH535 or 5 μM/1 μM Y3 or 5 μM/1 μM FH535-M or 5 μM/1 μM Y3-M (via Port C) and 0.1 μM antimycin A (via Port D) starting with the initial volume of 175 μL RB in the chamber and diluting it to 9×, 10×, 11× and 12× with every injection through ports A to D, respectively. Once loaded, the sensor cartridge was placed into the Seahorse XFe96 Flux Analyzer for automated calibration. Seahorse Standard XFe96 assay plates were used for loading mitochondria. Initially total mitochondria were diluted to 6 μg/30 μL in RB and 30 μL was loaded in each well resulting in 6 μg mitochondria/well. The assay plates were centrifuged at 3,000 rpm for 4 min at 4° C. to adhere liver mitochondria at the bottom of the wells. After centrifugation, 145 μL RB (pre-incubated to 37° C.) was added without disturbing the mitochondrial layer to obtain a final volume of 175 μL per well. […]

Hep3B cells = experiment: [3H]-thymidine incorporation assay, Hep3B; format: cell-based, human; details: 72 h
Method: (§1) Huh7, PLC/PRF/5 and Hep3B cells were plated in 96-well plates at 3000-4000 cells/well, treated with the concentrations indicated of FH535 or FH535-N, as single agents or in combination with sorafenib, and cultured for 72 h. ^3H-thymidine incorporation assay was performed as described previously.

Huh7 cells [3] = experiment: Cyto-ID autophagy detection assay in Huh7 cells; format: cell-based, human; details: Huh7, 40 h, ±50 μM CQ
Method: Autophagy responses were monitored with the Cyto-ID autophagy detection reagent 2.0 (Enzo Life Sciences, USA) according to the manufacturer's instructions. Huh7 and PLC/PRF/5 cells were seeded in 12-well plates and treated the following day with drugs or DMSO vehicle control at the indicated concentrations. CQ was added to the corresponding wells to a final concentration of 50 μM 8 h prior harvesting. After 40 h of drug treatment, cells were collected and assessed for viability with Zombie Violet dye solution (BioLegend, USA) followed by Cyto-ID autophagy detection reagent staining. Flow cytometry analyses were performed in a BD LSRII at the Flow Cytometry and Cell Sorting Shared Resource Facility of the University of Kentucky Markey Cancer Center and data were analyzed with the FlowJo Software version 7.6.5 (Tree Star, USA). The autophagic flux was quantified by subtracting the Cyto-ID MFI value of the sample without CQ from the Cyto-ID MFI value of the sample with CQ for each condition according to the formula: […]

AMPK = experiment: Western blot of AMPK (T172) and ACC (S79) phosphorylation in CRC cells; format: cell-based, human; details: concentration not given
Method: Biochemistry. Western blotting: Cells were lysed in the appropriate volume of lysis buffer: 50 mM HEPES, 100 mM NaCl, 2 mM EDTA, 1% (v/v) glycerol, 50 mM NaF, 1 mM Na3VO4, 1% (v/v) Triton X-100, with protease inhibitors. The following antibodies were used: AMPK (Cell Signaling, 2532, Cell Signaling Technologies, Danver, Mass., USA), pAMPK (Cell Signaling, 2535), ACC (Cell Signaling, 3676), pACC (Cell Signaling, 11818), Actin (Sigma, A1978). Antibodies for Axin 2, c-Myc and Cyclin D1 have been described previously. ATP analysis: Cells growing in 12-well plates were treated with DMSO or inhibitors in DMSO solution and lysed by adding 1 mL boiling doubly distilled water. Supernatants were analyzed by luminescence using ATP Determination Kit (Invitrogen, A22066; Thermo Fisher Scientific, Waltham, Mass., USA).

[4] = test system: Wnt/β-catenin target genes; experiment: Expression of downstream β-catenin targets in Huh7 cells (western blot, RT-qPCR); format: cell-based, human; details: Huh7, 36 h
Method: (§2) Primary antibodies are described in Table 1.
Total RNA was extracted with miRNeasy mini kit (Qiagen, Germany), and the corresponding cDNA was produced using iScript cDNA synthesis kit (BioRad, USA) from 1 μg of total RNA. Real time quantitative PCR (RT-qPCR) was performed using SsoAdvanced Universal SYBR Green supermix (BioRad, USA) with specific primers: p62 (SQSTM1: 5′-[…]-3′ (SEQ ID NO: 1) and 5′-[…]-3′ (SEQ ID NO: 2)); c-MYC (cMYC: 5′-[…]-3′ (SEQ ID NO: 3) and 5′-[…]-3′ (SEQ ID NO: 4)), Survivin (BIRC5, 5′-[…]-3′ (SEQ ID NO: 5) and 5′-[…]-3′ (SEQ ID NO: 6)), AXIN 2 (AXIN2: 5′-[…]-3′ (SEQ ID NO: 7) and 5′-[…]-3′ (SEQ ID NO: 8)), Cyclin D1 (5′-CCND1: […]-3′ (SEQ ID NO: 9) and 5′-[…]-3′ (SEQ ID NO: 10)), and b2-microglobulin (B2M: 5′-[…]-3′ (SEQ ID NO: 11) and 5′-[…]-3′ (SEQ ID NO: 12)). Transcript levels were normalized to β-actin or […] level as indicated using the ΔΔCt method.

PLC/PRF/5 cells [5] = experiment: Annexin V/PI apoptosis assay, PLC/PRF/5; format: cell-based, human; details: PLC/PRF/5, 48 h
Method: (§3) Apoptosis assay was performed in Huh7 and PLC/PRF/5 cells treated 48 h with DMSO vehicle control or the indicated doses of FH535, FH535-N alone or in combination with sorafenib. Cells were harvested and stained with the APC Annexin V apoptosis detection kit with PI (BioLegend, USA) according to the manufacturing instructions followed by flow cytometry analysis. Flow cytometry data was acquired with an LSRII instrument (BD-Biosciences) and analyzed with FlowJo software (Tree Star).

Huh7 cells [6] = experiment: Annexin V/PI apoptosis assay, Huh7; format: cell-based, human; details: Huh7, 48 h
Method: as §3

Wnt signaling = experiment: Wnt reporter assay, stable HEK293T cell line containing TOPFlash reporter, LiCl-activated; format: cell-based, human; details: concentration not given
Text: To identify novel Wnt regulators by high throughput screening, a stable HEK293T cell line containing the TOPFlash reporter was established. To identify Wnt inhibitors that targeted molecular events downstream of β-catenin, we treated these cells with lithium chloride to inhibit GSK3 and to stabilize β-catenin. […] We also validated the results by transient transfection of Super 8× TOPFlash or 8× FOPFlash into HEK293T cells. […] Since the results from the stable and transient transfection are compatible, we used stable cell lines for all of the other experiments.
Reporter assay. Wnt reporter assay and cell staining assay have been described previously. We subcloned Super 8×TOPFlash (provided by Professor Randall Moon, University of Washington) into the pGL4.83 [hRlucP/Puro] Vector and transfected it into HEK293T cells. A stable HEK293T cell line containing the TOPFlash reporter was established using puromycin selection. To screen Wnt inhibitors that block the downstream signaling transduction pathway of β-catenin, we treated the reporter cells with 25 mM LiCl to stabilize β-catenin and activate Wnt signaling. The potential Wnt inhibitors identified from screening were validated by transfecting TOPFlash or FOPFlash plus control renilla reporters into HEK293T cells, and then treating the cells with DMSO or testing compounds in DMSO solution. The Wnt signaling was activated by LiCl or Wnt3A treatment.

PLC/PRF/5 cells [7] = experiment: [3H]-thymidine incorporation assay, PLC/PRF/5; format: cell-based, human; details: PLC/PRF/5, 72 h
Method: as §1

Huh7 cells [8] = experiment: [3H]-thymidine incorporation assay, Huh7; format: cell-based, human; details: Huh7, 72 h
Method: as §1

Huh7 cells [9] = experiment: Western blot of autophagy markers LC3II and p62 in Huh7 cells; format: cell-based, human
Text: as §2

Compound: O=[N+]([O-])c1ccc(NS(=O)(=O)c2cc(Cl)ccc2Cl)c2ccccc12 [Y3, 2,5-dichloro-N-(4-nitronaphthalen-1-yl)benzenesulfonamide]
- Wnt/β-catenin transcriptional activity (TOP-Flash) (Wnt/β-catenin pathway): reduced the Wnt/β-catenin transcriptional activity
- Proton Leak (Huh7 cells [1]): enhanced Proton Leak
- uncoupling: OCR blocked by oligomycin [2]: increased OCR in dose-dependent manner
- cell proliferation (3H-thymidine incorporation) (Hep3B cells): inhibited cell proliferation
- autophagic flux (Cyto-ID) (Huh7 cells [3]): reduction in the autophagic flux
- AMPK activation (AMPK): strongly activated AMPK
- expression of downstream Wnt/β-catenin target genes [4]: reduced
- apoptosis (Annexin V/PI) (PLC/PRF/5 cells [5]): significant increased rate of apoptosis
- apoptosis (Annexin V/PI) (Huh7 cells [6]): significant increased rate of apoptosis
- inhibition of Wnt signaling (Wnt signaling): inhibited Wnt signaling
- cell proliferation (3H-thymidine incorporation) (PLC/PRF/5 cells [7]): inhibited cell proliferation
- cell proliferation (3H-thymidine incorporation) (Huh7 cells [8]): inhibited cell proliferation
- accumulation of LC3II in the presence of CQ (autophagic flux, ΔLC3II) (Huh7 cells [9]; Huh7, 50 μM CQ 8 h): reduced at higher doses
- LC3II protein levels (Huh7 cells [9]; Huh7, 40 h): increased
- p62 protein levels (Huh7 cells [9]; Huh7, 40 h): increased

Reference: patent US20220117920A1, “N-Aryl Benzenesulfonamides as Protonophores for the Treatment of Cancers, Metabolic Diseases and Traumatic Brain Injury” (University of Kentucky Research Foundation, priority 2019, published 2022)
